Patent US20110118209A1 (priority 2006, published 2011)
Read-outs that look alike come from different tables or passages of the source.

How the values were obtained:
[1] = tested on: primary rabbit kidney proximal tubule (RPT) cells
L1210/CPA = type: in vivo, mice
P388/CPA = type: in vivo, mice
human lox-IMVI melanoma = type: in vivo
L1210/0 = type: in vivo, mice
P388/0 = type: in vivo, mice
in vivo = settings: rat, po
mice [2] = assay: Tolerability of IPM in tumor-bearing mice (Example 4 studies); type: in vivo; settings: IP and IV treatment
Source text: This example describes the evaluation of IPM against several different cancer cell lines implanted in mice.

mice [3] = settings: 75 mg/kg, either sex
B16 Melanoma = tested on: B16 Melanoma; parameters: species or system mice; settings: mouse, in vivo
[4] = 200 mg/kg IP day 2 only, male CDF1 mice
[5] = 175 mg/kg IP day 1 only, female CDF1 mice
[6] = 265 mg/kg IP day 1 only, female CDF1 mice

Compound: O=P1(NCCCl)OCCC(O)N1CCCl (stereo not shown) [4-hydroxyifosfamide]
- cell death [1]: extensive cell death

Compound: O=P1(N(CCCl)CCCl)NCCCO1 (stereo not shown) [CPA, cyclophosphamide]
- Net log10 Reduction in tumor burden after therapy (L1210/CPA; [4]): 4 log10
- Net log10 Reduction in tumor burden after therapy (P388/CPA; [5]): 3 log10
- Net log10 Reduction in tumor burden after therapy (P388/CPA; [6]): 3 log10
- Median Day of Death (human lox-IMVI melanoma; 40 mg/kg/dose IV Q1 D × 5, nude mice): 42.0 days
- Net log10 Reduction in tumor burden after therapy (L1210/0; [4]): 7 log10
- Net log10 Reduction in tumor burden after therapy (P388/0; [5]): 7 log10
- Net log10 Reduction in tumor burden after therapy (P388/0; [6]): 7 log10

Compound: O=P1(NCCCl)OCCC(OO)N1CCCl (stereo not shown) [HIFA, 4-hydroperoxyifosfamide]
- effect on viability [1]: did not significantly affect viability

Compound: O=P(O)(NCCCl)NCCCl [IPM, N,N′-di(2-chloroethyl)phosphorodiamidic acid]
- Net log10 Reduction in tumor burden after therapy (L1210/CPA; mouse, in vivo): 7 log10
- Net log10 Reduction in tumor burden after therapy (P388/CPA; mouse, in vivo): 7 log10
- Median Day of Death (human lox-IMVI melanoma; in vivo): 29.0 days
- LD50 (in vivo): 1400 to 3500 mg/kg
- tolerability (mice [2]): tolerated intraperitoneal (IP) and intravenous (IV) treatment with IPM well
- microscopic findings (mice [3]): No obvious treatment-related microscopic findings
- Net log10 Reduction in tumor burden after therapy (L1210/0; mouse, in vivo): 8 log10
- efficacy compared with CPA and Ifos (B16 Melanoma): slightly inferior to CPA but better than Ifos

Compound: O=P1(NCCCl)OCCCN1CCCl (stereo not shown) [Ifos, Ifosfamide]
- Net log10 Reduction in tumor burden after therapy (P388/CPA; mouse, in vivo): 4 log10
- Net log10 Reduction in tumor burden after therapy (L1210/0; mouse, in vivo): 8 log10
- Net log10 Reduction in tumor burden after therapy (P388/0; mouse, in vivo): 7 log10

Compound: C=CC=O [acrolein]
- LD50 ([1]; rabbit): 80 µM

Compound: O=CCCl [chloroacetaldehyde]
- concentration of complete inhibition ([1]; rabbit): 75 µM
